Measured values reported in PubChem BioAssay (NCI).
Values joined by “and” are separate entries in the source; they are usually repeats but may differ in a detail not shown here. Equal entries are not always repeated.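 Following 48 hours of exposure in 96-well plates, responses at five concentrations were used to interpolate endpoints linearly. GI50: concentration for 50% inhibition of growth. TGI: total growth inhibition.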

How the values were obtained:
Test in all cases: DTP human tumour cell line panel, 48 h
LOX IMVI melanoma = tested on: LOX IMVI melanoma
UACC-62 melanoma = tested on: UACC-62 melanoma
SW-620 colon = tested on: SW-620 colon
NCI-H460 lung = tested on: NCI-H460 lung
EKVX NSCLC = tested on: EKVX NSCLC
CCRF-CEM leukemia = tested on: CCRF-CEM leukemia
NCI-H23 lung = tested on: NCI-H23 lung
COLO 205 colon = tested on: COLO 205 colon
CAKI-1 renal = tested on: CAKI-1 renal
KM12 colon = tested on: KM12 colon

Row | SMILES | TGI (LOX IMVI melanoma) [µM] | TGI (UACC-62 melanoma) | TGI (SW-620 colon) [µM] | TGI (NCI-H460 lung) | TGI (EKVX NSCLC) [µM] | TGI (CCRF-CEM leukemia) | TGI (NCI-H23 lung) | TGI (COLO 205 colon) | TGI (CAKI-1 renal) | TGI (KM12 colon) | GI50 (EKVX NSCLC) | GI50 (CCRF-CEM leukemia) [µM] | GI50 (COLO 205 colon) [µM] | GI50 (CAKI-1 renal) [µM] | GI50 (KM12 colon) [µM]
1 | O=C(CN1CCN(C(=O)OCc2ccccc2)CCN(CC(=O)N2CCCCC2)CCN(C(=O)OCc2ccccc2)CC1)N1CCCCC1 | 28.1 | 38.8 µM | > 53.5 | 26.7 µM | > 56.7 | > 49.8 µM | > 100 µM | 27.2 µM | 28.9 µM | 46.3 µM | – | – | – | – | –
2 | N#CCC(=O)Nn1c(CC#N)nnc1Cc1ccccc1 | – | > 100 µM | > 100 | > 100 µM | – | – | > 100 µM | – | > 100 µM | > 100 µM | – | – | – | – | –
3 | COc1cc([C@@H]2c3cc4c(cc3[C@@H](NCCNCCO)[C@H]3COC(=O)[C@H]23)OCO4)cc(OC)c1O | – | 5.34 µM and 3.61 µM | > 100 | 4.49 µM and 3.1 µM | > 100 | 0.567 µM and 0.695 µM | 9.94 µM and 10.8 µM | 24 µM and 24.5 µM | 30.1 µM and > 59.5 µM | > 40.2 µM and 17.5 µM | 5.36 µM and 13 µM | 0.123 | – | – | –
4 | COP(C)(=O)/C(Cc1ccccc1)=N\O (configuration not stated) | > 100 | – | > 100 | > 100 µM | – | > 100 µM | > 100 µM | > 100 µM | > 100 µM | – | – | – | – | – | –
5 | O=C1NC2(CCCCC2)N=C2C(Cl)CCCC12Cl (configuration not stated) | > 100 | > 100 µM | > 100 | > 100 µM | > 100 | > 100 µM | > 100 µM | > 100 µM | – | > 100 µM | – | – | – | – | –
6 | CC[C@@]1(O)C(=O)OCc2c1cc1n(c2=O)Cc2c-1nc1ccccc1c2CC[Si](C)(C)C | – | 0.176 µM | > 100 | < 0.0335 µM | > 100 | – | 0.0213 µM | 14.2 µM | 0.207 µM | – | – | – | – | – | –
7 | CC(=O)O[C@H]1CC[C@]2(C)[C@H]3CC[C@@H]4[C@H]5[C@H](C(C)C)CC[C@]5(C(=O)OCC(CO)(CO)N=C(N)N)CC[C@@]4(C)[C@]3(C)CC[C@H]2C1(C)C | – | – | – | – | 3.53 | 5.51 µM | – | 3.55 µM | 2.98 µM | 3.36 µM | 1.8 µM | 2.24 | 1.88 | 1.46 | 1.75
8 | CC(=O)[O-].CC(=O)[O-].O=C(N/N=C/c1cc(Cl)cc(Cl)c1[OH2+])c1ccncc1.[Co+2] | > 100 | > 100 µM | > 100 | > 100 µM | > 100 | > 100 µM | > 100 µM | > 100 µM | – | > 100 µM | – | – | – | – | –
9 | COc1ccc(/C=C2\CSC/C(=C\c3ccc(OC)c(OC)c3OC)C2=O)c(OC)c1OC | 83.3 | 30.4 µM | 58.6 | > 100 µM | > 100 | > 100 µM | > 100 µM | > 100 µM | – | > 100 µM | – | – | – | – | –
10 | O=C(O)CSc1cc(-c2ccccc2)nc2ccccc12 | > 100 | > 100 µM | > 100 | > 100 µM | > 100 | – | > 100 µM | – | > 100 µM | > 100 µM | – | – | – | – | –
11 | COC(=O)C1=Nc2c(C)nn(-c3ccccc3)c2N=C(c2ccc(C)cc2)C1 | > 10 | > 10 µM | > 10 | – | – | – | > 10 µM | > 10 µM | > 10 µM | > 10 µM | – | – | – | – | –
12 | CC(C)(C)c1ccc(CN2CCN(C(c3ccccc3)c3ccc(Cl)cc3)CC2)cc1 (configuration not stated) | > 100 | > 100 µM | > 100 | > 100 µM | > 100 | – | > 100 µM | > 100 µM | > 100 µM | > 100 µM | – | – | – | – | –
